Data taken from article PMC5522084, “Eg5 inhibitor YL001 induces mitotic arrest and inhibits tumor proliferation” (Oncotarget, 2017).
Like-named read-outs stand apart in the source and are kept apart here.

Key:
MCF-7 = assay: Antiproliferation assay (Alamar Blue), MCF-7; type: cell-based; conditions: Homo sapiens, MCF7; MCF-7, breast cancer; read-out: EC50 of YL001
Protocol: (§1) Cytotoxic activities of the compounds of interest were investigated with human cancer cell lines using the Alamar Blue assay. Cells (5 × 10^3 cells/well) were seeded into 96-well plates (Corning, 3603). Various sample concentrations (compounds of interest) were added to each well in duplicate, and incubated at 37°C with 5% CO2 for two days such that cells were in the exponential growth phase at the time of drug addition. Ten microliters of the Alamar Blue Solution (Invitrogen, Alamar Blue) were added to each well and incubated at 37°C for up to 2 hours in a humidified, 5% CO2 atmosphere. After incubation, florescence was measured using a microplate reader (Tecan) at an excitation wavelength of 540 nm and emission of 590 nm. Each inhibitory concentration was measured in triplicate, and averaged data points ± SD are shown. Statistical analysis was carried out with GraphPad Prism 5 and the fifty-percent effective concentration is expressed as EC50.

HT1080 = assay: Antiproliferation assay (Alamar Blue), HT1080; type: cell-based, Human; conditions: read-out: EC50 of YL001
Protocol: as §1

Eg5 motor domain = biological target: T1, Eg5 motor domain (Homo sapiens, UniProt P52732); assay: SPR assay (Biacore T200); type: binding; conditions: SPR Biacore T200, 25°C
T1 sequence (P52732 18-359 limits assumed): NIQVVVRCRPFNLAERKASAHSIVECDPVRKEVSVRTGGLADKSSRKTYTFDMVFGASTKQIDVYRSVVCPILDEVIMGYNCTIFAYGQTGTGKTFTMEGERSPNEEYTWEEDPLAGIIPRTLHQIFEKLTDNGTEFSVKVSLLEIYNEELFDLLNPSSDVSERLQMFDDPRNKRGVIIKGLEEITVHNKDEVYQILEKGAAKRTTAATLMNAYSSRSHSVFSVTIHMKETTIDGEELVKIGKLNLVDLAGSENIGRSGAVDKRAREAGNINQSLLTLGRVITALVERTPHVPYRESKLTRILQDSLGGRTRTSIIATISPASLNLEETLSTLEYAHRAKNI
Protocol: Interactions of the Eg5 motor domain and compounds of interest were analyzed using the Biacore T200 system (GE Healthcare, Uppsala, Sweden) at 25°C. Eg5 motor protein obtained as previously described (51) was immobilized on a sensor chip (CM5) using an amine coupling kit (GE Healthcare, Buckinghamshire, UK). […] For binding studies, analytes were applied at corresponding concentrations in running buffer at a flow rate of 30 μL/minute with a contact time of 60 seconds and a dissociation time of 60 seconds. Chip platforms were washed with running buffer and 50% DMSO. Data were analyzed with Biacore evaluation software (T200 Version 1.0) by curve fitting using a steady state 1:1 binding model and a kinetic model.

B16 melanoma xenograft = B16 melanoma xenograft model; type: in vivo
Protocol: B16 cells (1 × 10^6 cells) were inoculated s.c. into 6-week old C57BL/6 mice. Tumor volume was calculated as: V = 1/2× L (long axis)×W^2 (short axis). When the volume of tumor was between 50 to 100 mm^3, YL001 was administered i.p. daily on days 1 to 10 at 200 mg/kg. Doses and schedules were determined by tolerance studies. Mice were kept under specific pathogen-free conditions, and all animal experiments were approved by the Committee on Animal Research at our institute.
Vehicle (10% (v%) N,N-Dimethylacetamide (DMAC) in 200 μL olive oil per 20 g mouse) was administered daily i.p. as a control on days 1 to 10. Drug efficiency was expressed as the ratio of the mean experimental V/V0 value to that of the control group [treated versus control (T/C) ratio], where V is the tumor volume on the day of evaluation and V0 is the tumor volume on the day of initial treatment with the drug. Drug efficiency was also evaluated by median survival. All statistical analysis was performed using Graphpad Prism 5.

Huh7 = assay: Antiproliferation assay (Alamar Blue), Huh7; type: cell-based; conditions: Homo sapiens, Huh-7; Huh7, liver cancer; read-out: EC50 of YL001
Protocol: as §1

Eg5 = Eg5 (Homo sapiens, UniProt P52732); assay: Inhibition of Eg5 ATPase activity; type: biochemical; conditions: read-out: Enzyme EC50
Protocol: All experiments were performed as previously described. Data were analyzed using GraphPad Prism 5 and Microsoft Excel to obtain EC50 values. […] Each inhibitory concentration was measured in triplicate, and averaged data points ± SD are shown.

HCT116 = assay: Antiproliferation assay (Alamar Blue), HCT116; type: cell-based; conditions: Homo sapiens, HCT-116; HCT116, colon cancer; read-out: EC50 of YL001
Protocol: as §1

HeLa = assay: Antiproliferation assay (Alamar Blue), HeLa; type: cell-based; conditions: Homo sapiens, 48 h, HeLa cell line, two days
Protocol: as §1

[1] = Nucleophilic addition assay; conditions: incubated with cysteine and lysine for 24 hours at 37°C
Protocol: 0.5 mmol YL001 was solved in a solution of THF/H2O (v:v = 1:1) and stirred with nucleophiles (0.5 mmol L-cysteine or L-lysine) at 37°C for 24 hours. Products were then validated by HRMS.

[2] = system: panel of 468 typical, atypical and mutant human kinases; assay: Kinase profiling (KINOMEscan, DiscoverX); type: binding; conditions: 468 kinases, 1 μM
Protocol: Kinase profiling was conducted by the DiscoverX as KINOMEscan profiling service for testing the inhibition of YL001 of interest against 468 kinases. Selectivity score S(35) was defined as follows:
S(35) = (number of non-mutant kinases with% Control < 35)/(number of non-mutant kinases tested).

K562 = assay: Antiproliferation assay (Alamar Blue), K562; type: cell-based; conditions: Homo sapiens; K562, leukemia; read-out: EC50 of YL001
Protocol: as §1

[3] = system: human and rodent cancer cell lines; assay: Antiproliferative activity over the panel of 15 cancer cell lines; type: cell-based; conditions: 15 cell lines tested, read-out: EC50 values predominantly in the range
Protocol: as §1

A549 = assay: Antiproliferation assay (Alamar Blue), A549; type: cell-based; conditions: Homo sapiens; A549, lung cancer; read-out: EC50 of YL001
Protocol: as §1

Sequence of Eg5 (P52732 whole entry): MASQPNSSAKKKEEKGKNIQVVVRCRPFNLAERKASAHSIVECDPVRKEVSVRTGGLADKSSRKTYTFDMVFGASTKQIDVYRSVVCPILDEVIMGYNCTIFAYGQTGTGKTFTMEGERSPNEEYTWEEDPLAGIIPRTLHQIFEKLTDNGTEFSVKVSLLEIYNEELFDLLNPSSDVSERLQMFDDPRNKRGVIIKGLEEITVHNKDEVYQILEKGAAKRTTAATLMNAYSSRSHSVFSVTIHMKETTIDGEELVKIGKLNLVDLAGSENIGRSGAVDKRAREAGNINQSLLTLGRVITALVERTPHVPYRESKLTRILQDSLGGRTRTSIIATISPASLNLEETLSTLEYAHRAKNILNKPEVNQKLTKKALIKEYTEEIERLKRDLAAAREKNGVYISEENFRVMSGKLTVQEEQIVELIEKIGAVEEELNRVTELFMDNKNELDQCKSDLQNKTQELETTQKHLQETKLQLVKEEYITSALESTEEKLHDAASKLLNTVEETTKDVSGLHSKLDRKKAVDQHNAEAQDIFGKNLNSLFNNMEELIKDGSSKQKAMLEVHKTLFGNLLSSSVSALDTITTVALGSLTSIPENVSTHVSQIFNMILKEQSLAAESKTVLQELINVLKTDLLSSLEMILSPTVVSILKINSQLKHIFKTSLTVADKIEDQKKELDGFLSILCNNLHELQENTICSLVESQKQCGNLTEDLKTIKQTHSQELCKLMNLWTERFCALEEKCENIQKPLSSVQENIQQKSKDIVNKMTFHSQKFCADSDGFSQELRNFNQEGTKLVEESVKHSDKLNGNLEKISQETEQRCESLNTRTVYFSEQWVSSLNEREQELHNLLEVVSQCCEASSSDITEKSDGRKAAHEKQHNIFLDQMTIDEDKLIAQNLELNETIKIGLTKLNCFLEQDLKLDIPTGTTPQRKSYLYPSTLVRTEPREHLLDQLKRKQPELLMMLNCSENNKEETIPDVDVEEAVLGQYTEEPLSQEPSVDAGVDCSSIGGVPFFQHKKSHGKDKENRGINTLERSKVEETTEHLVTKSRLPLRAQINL

## Cc1ccc(-n2nnnc2/C(=C/N(C)C)C(=O)c2cccc(C(F)(F)F)c2)cc1 [YL001, (Z)-3-(dimethylamino)-2-(1-(p-tolyl)-1H-tetrazol-5-yl)-1-(3-(trifluoromethyl)phenyl)prop-2-en-1-one]
MCF-7
  EC50: 14.9 ± 2.57 µM
HT1080; HT1080, fibrosarcoma
  EC50: 76.2 ± 0.77 µM
HT1080; Homo sapiens, HT-1080, HT1080, fibrosarcoma
  EC50: > 70 µM
Eg5 motor domain
  Kd: 0.133 µM
B16 melanoma xenograft; 200 mg/kg i.p. daily for 10 days, body weight
  adverse effects / toxicity: no adverse effects were observed
B16 melanoma xenograft; 200 mg/kg i.p. daily for 10 days, tumor volume
  minimum T/C ratio: 0.40
B16 melanoma xenograft; 200 mg/kg, B16 tumor-bearing mice
  Medium survival time: > 33 days
B16 melanoma xenograft; xenograft mouse model, 200 mg/kg i.p. daily
  tumor growth inhibition: 60%
Huh7
  EC50: 14.6 ± 0.82 µM
Eg5
  EC50: 1.18 µM
HCT116
  EC50: 9.04 ± 2.19 µM
HeLa
  EC50: 14.3 ± 0.78 µM
[1]
  reaction with nucleophiles (new products by HRMS): no new products were detected
[2]
  activity against kinase panel: no activity
K562
  EC50: 9.76 ± 0.52 µM
[3]
  EC50: 5 to 20 µM
A549
  EC50: 22.8 ± 0.72 µM
